Results published in patent publication US10233198B2, “Pro-drugs of NSAIAs with very high skin and membranes penetration rates and their new medicinal uses” (Techfields Pharma Co., Ltd., priority 2007, dated 2019).

What was measured:
[1] = in vivo
Description: The in vivo rates of penetration of pro-drugs and their parent drugs through the skin of intact rats were compared. The donor consisted of 20% pro-drugs or their parent drugs in 1 ml of ethanol applied to about 5 cm^2 area on the backs of rats (˜200 g). After 4 hours, the rats were killed, and 5 ml of methanol was added to 1 ml of blood, 1 g of liver, 1 g of kidney, or 1 g of brain (liver, kidney or brain was washed with pH 7.2 buffer for three times) and the mixtures were homogenized. The samples were then centrifuged for 5 min and analyzed using HPLC.
After 4 hours, the rats were killed, and 5 ml of methanol was added to 1 ml of blood, 1 g of liver, 1 g of kidney, or 1 g of brain (liver, kidney or brain was washed with pH 7.2 buffer for three times) and the mixtures were homogenized.

[2] = test system: SLAC/GK rats, type 2 diabetes; assay: Blood glucose in type 2 diabetic rats, transdermal; assay type: in vivo; details: no fasting; for Blood glucose, diabetic rats, Baseline: baseline of the treatment group; for Blood glucose, diabetic rats, Average: transdermal, equal to 20 mg/kg of NSAIAs once per day for 5 weeks, measured every 3 days, second to fifth week
Source text: (§1) The pro-drugs in this invention lower blood glucose levels in rat models (SLAC/GK, type 2 diabetes, n=7). 50% acetone solution of diethylaminoethyl acetylsalicylate.acetylsaficylic acid salt (P-1, in acetone); 4-acetamidophenyl salicylyldimethylaminobutyrate.HCl (P-6), diethylaminoethyl 5-(2,4-difluorophenyl) acetylsalicylate.5-(2,4-difluorophenyl) acetylsalicylic acid salt (P-8), diethylaminoethyl salicylsalicylate.AcOH (P-9), diethylaminoethyl salicylate.AcOH (P-10), diethylaminoethyl 5-acetamido-acetylsalicylate (P-58), diethylaminoethyl acetylsalicylsalicylate. acetylsalicylsalicylic acid salt (P-59), diethylaminoethyl acetylsalicylsalicylate. acetylsalicylsalicylsalicylic acid salt (P-60) (equal to of 20 mg/kg of NSAIAs) were administered transdermally to the backs (about 1.5 cm^2) of rats (fur was shaved) once per day (at 8 am) for 5 weeks. The blood glucose levels were measured once every 3 days at 4 pm (no fasting) from the second week to the fifth week. The blood lipid levels were measured at the end of the fifth week.

[3] = test system: normal rats; assay: Blood glucose in normal rats, transdermal; assay type: in vivo; details: no fasting; for Blood glucose, normal rats, Baseline: baseline of the treatment group; for Blood glucose, normal rats, Average: transdermal, equal to 20 mg/kg of NSAIAs once per day for 5 weeks, second to fifth week
[4] = test system: SLAC:NOD-IDDM mice, type 1 diabetes; assay: Blood glucose in type 1 diabetic mice, transdermal; assay type: in vivo; details: no fasting; for Blood glucose, type I diabetic mice, Baseline: baseline of the treatment group; for Blood glucose, type I diabetic mice, Average: transdermal, equal to 20 mg/kg of NSAIAs once per day for 7 weeks, fourth to seventh week
Source text: The pro-drugs in this invention lower blood glucose levels in mouse models (SLAC:NOD-IDDM, type 1 diabetes, n=7). 20% acetone solution of diethylaminoethyl acetylsalicylate.acetylsalicylic acid salt (P-1, in acetone); 4-acetamidophenyl salicylyldimethylaminobutyrate.HCl (P-6), diethylaminoethyl 5-(2,4-difluorophenyl) acetylsalicylate.5-(2,4-difluorophenyl) acetylsalicylic acid salt (P-8), diethylaminoethyl salicylsalicylate.AcOH (P-9), diethylaminoethyl salicylate.AcOH (P-10), diethylaminoethyl 5-acetamido-acetylsalicylate (P-58), diethylaminoethyl acetylsalicylsalicylate. acetylsalicylsalicylic acid salt (P-59), diethylaminoethyl acetylsalicylsalicylate. acetylsalicylsalicylsalicylic acid salt (P-60) (equal to of 20 mg/kg of NSAIAs) were administered transdermally to the backs (about 1 cm^2) of mice (fur was shaved) once per day (at 8 am) for 7 weeks. The blood glucose levels were measured once every 3 days at 3 pm (no fasting) from the fourth week to the seventh week.

[5] = test system: SLAC/GK rats, type 2 diabetes; assay: Blood lipid levels in type 2 diabetic rats, oral with food; assay type: in vivo; details: for Cholesterol (total), Average: end of fifth week, oral with food, equal to 15 mg/kg of NSAIAs every day
Source text: The pH of stomach juice is 1-3. The negative charge on the phosphate head group of membrane is neutralized by the proton and the positive charge on the amino groups of these pro-drugs cannot bond to the phosphate head group of membranes, then the pro-drugs cannot pass through the wall of the stomach and will not hurt or upset the stomach. The pH of the duodenum is about 5-7 and the pro-drugs can pass through the mucosa of duodenum. The pancreas is nearby and large amount of the pro-drugs will enter there before going to the liver, kidneys, and the general circulation where the drug will be metabolized, so only very low dose of these pro-drugs are needed and very few and low side effects will be caused. The 20% acetone solution of diethylaminoethyl acetylsalicylate.acetylsalicylic acid salt (P-1, in acetone); 4-acetamidophenyl salicylyldimethylaminobutyrate.HCl (P-6), diethylaminoethyl 5-(2,4-difluorophenyl) acetylsalicylate.5-(2,4-difluorophenyl) acetylsalicylic acid salt (P-8), diethylaminoethyl salicylsalicylate.AcOH (P-9), diethylaminoethyl salicylate.AcOH (P-10), diethylaminoethyl 5-acetamido-acetylsalicylate (P-58), diethylaminoethyl acetylsalicylsalicylate. acetylsalicylsalicylic acid salt (P-59), diethylaminoethyl acetylsalicylsalicylate. acetylsalicylsalicylsalicylic acid salt (P-60) (equal to of 15 mg/kg of NSAIAs) were mixed with food and were orally administered to the rats (SLAC/GK, type 2 diabetes, n=7) with food every day for 5 weeks. The blood glucose levels were measured once every 3 days at 3 pm (no fasting) from the second week to the fifth week. The blood lipid levels were measured at the end of the fifth week.

[6] = test system: SLAC/GK rats, type 2 diabetes; assay: Blood lipid levels in type 2 diabetic rats, transdermal; assay type: in vivo; details: for Triglycerides, Baseline: baseline of the treatment group; for Triglycerides, Average: end of fifth week, transdermal, equal to 20 mg/kg of NSAIAs once per day
Source text: as §1

[7] = baseline of the treatment group

SMILES	Drug found in rat tissues or plasma after topical application of the parent drug itself [1]	Blood glucose, diabetic rats, Baseline [2] [mmol/L]	Blood glucose, diabetic rats, Average [2] [mmol/L]	Blood glucose, normal rats, Baseline [3] [mmol/L]	Blood glucose, type I diabetic mice, Baseline [4] [mmol/L]	Blood glucose, type I diabetic mice, Average [4] [mmol/L]	Triglycerides, Baseline [6] [mmol/L]	Triglycerides, Average [6] [mmol/L]	Brain level of prodrug or metabolite ([1]; rat, 4 h) [µg/g]	Kidney level of prodrug or metabolite ([1]; rat, 4 h) [µg/g]	Liver level of prodrug or metabolite ([1]; rat, 4 h) [µg/g]	Plasma level of prodrug or metabolite ([1]; rat, 4 h) [µg/mL]	other results
CC(=O)Oc1ccccc1C(=O)O [Aspirin]	None of these drugs was found	–	–	–	–	–	–	–	–	–	–	–	–
CC(=O)Nc1ccc(OC(=O)c2ccccc2OC(=O)CCCN(C)C)cc1.Cl [P-6, 4-acetamidophenyl salicylyldimethylaminobutyrate.HCl]	–	16.7 ± 4	8.5 ± 2	6.8 ± 1	27.7 ± 4	9.5 ± 2	6.3 ± 0.5	–	–	–	–	–	Blood glucose, normal rats, Average [3]: 6.5 ± 1 mmol/L; Cholesterol (HDL), Baseline [5, 7]: 1.8 ± 0.1 mmol/L; Triglycerides, Baseline [5, 7]: 5.9 ± 0.5 mmol/L
CC(=O)Oc1ccc(-c2ccc(F)cc2F)cc1C(=O)O.CCN(CC)CCOC(=O)c1cc(-c2ccc(F)cc2F)ccc1OC(C)=O [P-8, diethylaminoethyl 5-(2,4-difluorophenyl) acetylsalicylate.5-(2,4-difluorophenyl) acetylsalicylic acid salt]	–	17.1 ± 3	8.1 ± 1	7.1 ± 1	29.1 ± 5	9.1 ± 1	–	2.1 ± 0.2	–	–	–	–	Cholesterol (total), Baseline [5, 7]: 7.4 ± 0.6 mmol/L; Triglycerides, Baseline [5, 7]: 6.2 ± 0.7 mmol/L; Cholesterol (total), Average [5]: 5.1 ± 0.3 mmol/L
CC(=O)O.CCN(CC)CCOC(=O)c1ccccc1OC(=O)c1ccccc1O [P-9, diethylaminoethyl salicylsalicylate.AcOH]	–	–	8.4 ± 1	6.5 ± 1	26.5 ± 4	9.4 ± 1	5.7 ± 0.5	2.6 ± 0.2	–	–	–	–	Blood glucose, normal rats, Average [3]: 6.7 ± 1 mmol/L; Cholesterol (total), Average [5]: 5.3 ± 0.4 mmol/L
CC(=O)O.CCN(CC)CCOC(=O)c1ccccc1O [P-10, diethylaminoethyl salicylate.AcOH]	–	15.8 ± 3	8.2 ± 1	6.8 ± 1	25.8 ± 3	8.2 ± 1	6.6 ± 0.6	2.9 ± 0.2	–	–	–	–	–
O=C(O)c1ccccc1O [Salicylic acid]	–	–	–	–	–	–	–	–	–	–	–	–	Brain level of prodrug or metabolites ([1]; rat, 4 h): 30 ± 6 µg/g; Kidney level of prodrug or metabolites ([1]; rat, 4 h): 45 ± 6 µg/g; Liver level of prodrug or metabolites ([1]; rat, 4 h): 30 ± 8 µg/g; Plasma level of prodrug or metabolites ([1]; rat, 4 h): 80 ± 10 µg/mL
O=C(O)Cc1ccccc1Nc1c(Cl)cccc1Cl [diclofenac]	None of these drugs was found	–	–	–	–	–	–	–	40 ± 5	48 ± 6	25 ± 8	75 ± 8	–
CC(C(=O)O)c1cccc(Oc2ccccc2)c1 (centres unmarked) [fenoprofen]	None of these drugs was found	–	–	–	–	–	–	–	45 ± 5	48 ± 6	38 ± 8	80 ± 8	–
CC(C)Cc1ccc(C(C)C(=O)O)cc1 (centres unmarked) [ibuprofen]	None of these drugs was found	–	–	–	–	–	–	–	35 ± 5	45 ± 6	35 ± 8	70 ± 8	–
